Measurements as given in ChEMBL document CHEMBL2086360, “α-Glucosidase inhibitory hydrolyzable tannins from Eugenia jambolana seeds” (J Nat Prod, 2012).
pIC50: −log10 of the molar value.

Experiment: Inhibition of yeast alpha-glucosidase using p-nitrophenyl-alpha-D-glucopyranoside as substrate compound pre-incubated for 10 mins before substrate addition measured after 5 mins by microplate reader
Set-up: species or system Saccharomyces cerevisiae

SMILES	pIC50
C[C@H]1O[C@H](O[C@H]2[C@H](O)[C@@H](O)[C@@H](O[C@H]3[C@H](O)[C@@H](O)C(O)O[C@@H]3CO)O[C@@H]2CO)[C@H](O)[C@@H](O)[C@@H]1N[C@H]1C=C(CO)[C@@H](O)[C@H](O)[C@H]1O (stereo not given in full) [ACARBOSE]	3.68
O=C(O[C@H]1[C@@H]2OC(=O)c3cc(O)c(O)c(O)c3-c3c(cc(O)c(O)c3O)C(=O)OC[C@H]2OC(O)[C@@H]1OC(=O)c1cc(O)c(O)c(O)c1Oc1cc2c(=O)oc3c(O)c(O)cc4oc(=O)c(c1O)c2c43)c1cc(O)c(O)c(O)c1 (stereo not given in full) [CORNUSSIN B]	4.91
O=C(O[C@H]1[C@H](O)[C@@H](CO)OC(O)[C@@H]1OC(=O)c1cc(O)c(O)c(O)c1Oc1c(O)cc2c(=O)oc3c(O)c(O)cc4c(=O)oc1c2c34)c1cc(O)c(O)c(O)c1 (mixture of isomers)	5.09

Next, values leading:

pIC50	SMILES
3.83	COc1cc2oc(-c3ccc(O)cc3)cc(=O)c2c(O)c1[C@@H]1O[C@H](CO)[C@@H](O)[C@H](O)[C@H]1O [SWERTISIN]
4.12	O=C(O[C@H]1[C@H](O)[C@@H](CO)OC(O)[C@@H]1OC(=O)c1cc(O)c(O)c(O)c1Oc1cc2c(=O)oc3c(O)c(O)cc4c(=O)oc(c1O)c2c34)c1cc(O)c(O)c(O)c1 (stereo not given in full) [OENOTHEIN C]
